The test system of one data set is CD34+ cell cultures. The data set is described as follows: Colony forming unit (CFU, LTC-CFUc) ability of RAR antagonist treated CD34+ cultures. Format: cell-based, human. Conditions: for No. of CFU*103: RAR antagonist 10^−5 M for one week only. The method, then:
Cells were cloned in semi-solid, methylcellulose-containing medium supplemented with 2 IU/ml erythropoietin (Eprex, Cilag AG Int., Switzerland), stem cell factor and IL-3, both at 20 ng/ml, and G-CSF and GM-CSF, both at 10 ng/ml (all from Perpo Tech). Cultures were incubated for 14 days at 37° C., 5% CO2 in a humidified atmosphere.
Briefly, the ability of the cultures to maintain self-renewal was measured by determination of the content of colony forming unit cells in the long and extended long-term cultures (LTC-CFUc), as described in the references hereinabove.
Long-term CD34^+ cell cultures were supplemented with a combination of 4 cytokines, Flt3, TPO, IL-6 and IL-3, with and without varying predetermined concentrations of the RAR antagonist AGN 194310. RAR antagonist treatment of the cultures was for a limited period of three weeks or was continuous during the entire culture period. The ability to form CFUs was determined for long-term (6 weeks) cultures treated with 2 doses of the RAR antagonist for a short pulse or continuously and was compared to control samples treated with cytokines alone.

Another data set has as its system Hepatocytes. The data set is described as follows: Hepatocyte cultures ex-vivo expanded with TEPA. The settings on record: 15 μg/ml TEPA, five weeks. It counts as cell-based, BALB/c mice. The method, then: Hepatocytes: Livers were dissected from anesthetized BALB/c mice with sterile tools and immersed into F12 culture medium (Biological Industries, Kibbutz Bet Ha'Emek, Israel). The livers were washed three times with 3% BSA/PBS buffer and minced into small pieces with seizures. Following three washes with 3% BSA/PBS the liver tissue pieces were incubated for 30 minutes with 0.05% collagenase at 37° C. with continuos shaking under 5% CO2 atmosphere. The digested liver tissue pieces were than mashed by pressing through a fine mesh strainer. After three washes with 3% BSA/PBS the liver cells were seeded into F12 culture medium enriched with: 15 mM HEPES buffer, […], 10 mM sodium bicarbonate, 0.5 u/ml insulin, 7.5 ng/ml hydrocortisone and with or without 15 μg/ml of TEPA and incubated at 37° C. in a 5% CO2 atmosphere. After overnight incubation the medium was removed and the cells were supplemented with fresh enriched F12 medium as described above with or without 15 μg/ml of TEPA. Hepatocytes were incubated in 35 mm dishes for several weeks with enriched F12 culture medium with or without 15 μg/ml TEPA at 37° C. under 5% CO2 atmosphere. Cell culture medium was replaced every week with a fresh medium.

Data set [1] deals with lethally irradiated Balb/c X C57B1/6 F1 mice. The data set is described as follows: Hematopoietic reconstitution of lethally irradiated mice, fresh vs. ex-vivo expanded cells. It counts as in vivo. The method, then:
Hematopoietic reconstitution of lethally irradiated mice—fresh vs. ex-vivo expanded cells: Three month old female Balb/c X C57B1/6 F1 mice were lethally irradiated (1000 rad) and transplanted one day later with 1×10^5 fresh bone marrow cells or the yield of 1×10^5 bone marrow cells expanded ex-vivo either with or without TEPA for 3 to 5 weeks, as detailed in Table 12. Peripheral blood WBC counts were performed on weekly basis.

[2] abbreviates: Exp. I, 3 weeks ex-vivo with TEPA + cytokines, day 13.
[3] abbreviates: Exp. I, 3 weeks ex-vivo with TEPA + cytokines, day 19.
The mark [4] stands for this setting: Exp. II, 3 weeks ex-vivo with TEPA + cytokines, day 11.
[5] abbreviates: Exp. II, 3 weeks ex-vivo with TEPA + cytokines, day 29.
[6] abbreviates: Exp. III, 5 weeks ex-vivo with TEPA + cytokines, day 6.
[7] abbreviates: Exp. III, 5 weeks ex-vivo with TEPA + cytokines, day 11.

Molecules are shown by their SMILES.

Regarding `CCc1ccc(C2=CC(C)(C)Sc3ccc(C#Cc4ccc(C(=O)O)cc4)cc32)cc1` [AGN 194310], the “No. of CFU*103” value in the data set with CD34+ cell cultures (week 13) is on record as 66355 *103; with CD34+ cell cultures (week 20), 0 *103. Moreover, in the data set with CD34+ cell cultures (extended long-term cultures (week 6 to 10), pulse or continuous treatment), the “increase of CFU content” value was 15×10^4. For the same compound, in the data set on CD34+ cell cultures (long-term (6 weeks) cultures, pulsed first 3 weeks or continuous antagonist), the “increase in CFU content as compared to control” value was determined as 5 fold.
As to `NCCNCCNCCNCCN` [TEPA, tetraethylenepentamine], the “cell content of hepatocyte cultures” value in the data set with Hepatocytes was “contained many dividing and undifferentiated cells”. Further, the Survival in data set [1] (setting [2]), in data set [1] (setting [3]), in data set [1] (setting [4]), in data set [1] (setting [5]), in data set [1] (setting [6]) and in data set [1] (setting [7]) was 5/5 throughout. Further, the Survival in data set [1] (Exp. III, 5 weeks ex-vivo with TEPA + cytokines, day 19) is recorded as 4/5; in data set [1] (Exp. III, 5 weeks ex-vivo with TEPA + cytokines, day 27), 4/5. Moreover, the “WBC × 10^6/ml” value was 0.7 × 10^6/ml in data set [1] (setting [2]); 1.5 × 10^6/ml in data set [1] (setting [3]); 0.92 × 10^6/ml in data set [1] (setting [4]); 10.8 × 10^6/ml in data set [1] (setting [5]); 0.69 × 10^6/ml in data set [1] (setting [6]); 1.27 × 10^6/ml in data set [1] (setting [7]). Further, in data set [1] (bone marrow cells expanded ex-vivo in the presence of TEPA), the “WBC recovery vs fresh cells or cells expanded without TEPA” value is “faster”.

These data come from patent US20050054103A1, “Expansion of renewable stem cell populations using modulators of PI 3-kinase” (priority 2003, published 2005).
